Experimental data as given in publication PMC8842277, “Highly Antiproliferative Latonduine and Indolo[2,3-c]quinoline Derivatives: Complex Formation with Copper(II) Markedly Changes the Kinase Inhibitory Profile” (Journal of Medicinal Chemistry, 2022).
Read-outs that look alike come from different tables or passages of the source.

Assays:
[1] = Proton dissociation constants by UV–vis titration; type: physicochemical; details: 30–70% (w/w) DMSO–water; for pKa: DMSO:water 30:70 (w/w) solvent mixture
Description: The protonation processes of HL^1nm and its morpholine counterpart HL^1 (Chart 3) and the solution stability of their copper(II) complexes (1nm and 1) were characterized by UV–vis spectrophotometry. […] Based on the characteristic changes in the UV–vis spectra for HL^1nm in the pH range 2–6 (Figure 3a), two relatively well-separated proton dissociation processes were observed and their pKa values were determined (Table 1).
(§1) An Agilent Carry 8454 diode array spectrophotometer was used to record the UV–visible (UV–vis) spectra in the interval 200–800 nm. The path length was 2 or 0.5 cm. Spectrophotometric titrations were performed on samples containing the proligands HL^1, HL^1nm, or their copper(II) complexes (1 and 1nm; see Chart 2) by a KOH solution in the presence of 0.1 M KCl in a DMSO:water 30:70 (w/w) mixture as a solvent at 25.0 ± 0.1 °C in the pH range from 2 to 11. […] An Orion 710A pH meter equipped with a Metrohm combined electrode (type 6.0234.100) and a Metrohm 665 Dosimat burette were used for the pH measurements and titrations. […] The average water ionization constant (pKw) is 14.52 ± 0.05, which corresponds well to the literature data.[103] Argon was passed over the solutions during the titrations. Proton dissociation constants (pKa) of the ligand, overall stability constants (log β) of the copper(II) complexes, and the individual spectra of the various species present in the solution were calculated by the computer program PSEQUAD.[104] β (MpLqHr) is defined for the general equilibrium pM + qL + rH MpLqHr as β (MpLqHr) = [MpLqHr]/[M]^p[L]^q[H]^r where M denotes the copper(II) ion and L the completely deprotonated ligand. The calculations were always made from the experimental titration data measured in the absence of any precipitate in the solution.

[2] = tested on: normal human embryonal lung fibroblast cells (MRC-5); experiment: MTT antiproliferative assay; type: cell-based; details: read-out: IC50 MRC-5 benign, mean
Description: (§2) The in vitro antiproliferative activity of the compounds was tested in doxorubicin-sensitive Colo205 and multidrug-resistant Colo320 human colon adenocarcinoma cell lines as well as in normal human embryonal lung fibroblast cells (MRC-5) by MTT assay.
(§3) Human colonic adenocarcinoma cell lines Colo 205 doxorubicin-sensitive (ATCC-CCL-222) and Colo 320/MDR-LRP multidrug resistant over-expressing ABCB1 (MDR1)-LRP (ATCC-CCL-220.1) were purchased from LGC Promochem, Teddington, UK. The cells were cultured in an RPMI 1640 medium supplemented with 10% heat-inactivated fetal bovine serum, 2 mM L-glutamine, 1 mM Na-pyruvate, and 10 mM HEPES. The semi-adherent human colon cancer cells were detached with Trypsin-Versene (EDTA) solution for 5 min at 37 °C. An MRC-5 human embryonal lung fibroblast cell line (ATCC CCL-171) was purchased from LGC Promochem, Teddington, UK. The cells were cultured in Eagle’s minimal essential medium (EMEM, containing 4.5 g L^–1 glucose) supplemented with a non-essential amino acid mixture, a selection of vitamins, and 10% heat-inactivated fetal bovine serum. The HCT-116 colon carcinoma cells and isogenic p53-knock-out subline were a gift of Prof. Bert Vogelstein from The Johns Hopkins Oncology Center. Cells were cultured in McCoy’s 5A medium supplemented with 10% heat-inactivated fetal bovine serum and 4 mM L-glutamine. All cell lines were incubated at 37 °C, in a 5% CO2, 95% air atmosphere.
(§4) MRC-5 non-cancerous human embryonic lung fibroblast and human colonic adeno-carcinoma cell lines (doxorubicin-sensitive Colo 205 and multidrug resistant Colo 320 colonic adenocarcinoma cells) were used to determine the effect of compounds on cell growth. The effects of increasing concentrations of compounds on cell growth were tested in 96-well flat-bottomed microtiter plates. The compounds were dissolved in DMSO and stock solutions of 10 mM were prepared. These were further diluted in the appropriate cell culture medium by twofold serial dilution starting from 100 or 10 μM for the compounds. The adherent human embryonal lung fibroblast cells were cultured in 96-well flat-bottomed microtiter plates using EMEM supplemented with 10% heat-inactivated fetal bovine serum. The density of the cells was adjusted to 1 × 10^4 cells in 100 μL per well, the cells were seeded for 24 h at 37 °C, 5% CO2, then the medium was removed from the plates containing the cells, and the dilutions of compounds previously made in a separate plate were added to the cells in 200 μL. In the case of the colonic adenocarcinoma cells, the twofold serial dilutions of compounds were prepared in 100 μL of RPMI 1640, horizontally. The semi-adherent colonic adenocarcinoma cells were treated with Trypsin-Versene (EDTA) solution. They were adjusted to a density of 1 × 10^4 cells in 100 μL of RPMI 1640 medium and were added to each well, with the exception of the medium control wells. The final volume of the wells containing compounds and cells was 200 μL. The culture plates were incubated at 37 °C for 72 h; at the end of the incubation period, 20 μL of MTT (thiazolyl blue tetrazolium bromide, Sigma) solution (from a stock solution of 5 mg mL^–1) was added to each well. After incubation at 37 °C for 4 h, 100 μL of sodium dodecyl sulfate (SDS) (Sigma) solution (10% in 0.01 M HCI) was added to each well and the plates were further incubated at 37 °C overnight. Cell growth was determined by measuring the optical density (OD) at 540/630 nm with a Multiscan EX ELISA reader (Thermo Labsystems, Cheshire, WA, USA). […] Curves were fitted by GraphPad Prism software[57] using the sigmoidal dose–response model (comparing variable and fixed slopes). The IC50 values were obtained from at least three independent experiments. Tests in adherent HCT-116 colon carcinoma cells and an isogenic p53-knock-out subline thereof were performed in a similar manner, with 1.5 × 10^3 cells seeded in 100 μL of McCoy’s 5A medium (Sigma-Aldrich) per well. […]

[3] = Overall stability constants of copper(II) complexes by UV–vis titration; type: physicochemical; details: 30–70% (w/w) DMSO–water, 298 K, I = 0.10 M (KCl)
Description: The tridentate coordination via the N,N,N donor set is assumed in [Cu(HL^1nm)]^2+ at such low pH. […] The deprotonation of the non-coordinating hydrazonic nitrogen is likely, and complex [Cu(L^1nm)]^+ is formed. […] However, the absorbance is decreased in the whole wavelength range due to precipitate formation. By the deconvolution of the recorded UV–vis spectra, overall stability constants for the complexes [Cu(HL^1nm)]^2+ and [Cu(L^1nm)]^+ were computed, and log β for [Cu(L^1nm)(OH)] was only estimated (Table 1). In the case of the morpholine hybrid, a somewhat different speciation was obtained as the presence of the pendant morpholine moiety had to be taken into consideration. Log β values for [CuH(HL^1)]^3+, [CuH(L^1)]^2+, and [Cu(L^1)]^+ were computed from the spectrophotometric titration data (Table 1). Since the molar absorbance spectra of [CuH(HL^1)]^3+ and [CuH(L^1)]^2+ complexes resemble those of [Cu(HL^1nm)]^2+ and [Cu(L^1nm)]^+ (Figure 4b), the same coordination modes are likely in these species in couples. […] Increasing the pH (pH > 5), the absorbance is decreased in the whole wavelength range, no isosbestic points are found (indicating the formation of some precipitate), while the λmax is increased. Formation of a mixed hydroxido species [CuH(L^1)(OH)]^+ is also possible. However, the deprotonation of the morpholinium group can take place as well (formation of [Cu(L^1)]^+) in this pH range. As these two processes are overlapping, the two species could not be well distinguished, and the obtained stability constant is quite uncertain.
as §1

[4] = parameters: method as in PMID 31125040; details: cited from earlier work
[5] = tested on: multidrug-resistant Colo320 human colon adenocarcinoma cells; experiment: MTT antiproliferative assay; type: cell-based; details: for selectivity factor (SF) Colo320: IC50 MRC-5/IC50 Colo320; for IC50: MTT, 72 h
Description: as §2, §3, §4

[6] = tested on: doxorubicin-sensitive Colo205 human colon adenocarcinoma cells; experiment: MTT antiproliferative assay; type: cell-based; details: for selectivity factor (SF) Colo205: IC50 MRC-5/IC50 Colo205; for IC50: MTT, 72 h
Description: as §2, §3, §4

[7] = Solubility in water/DMSO 99/1; type: physicochemical
Description: To a solution of HL^1 (203 mg, 0.45 mmol) in isopropanol (10 mL) a solution of CuCl2·2H2O (77 mg, 0.45 mmol) in methanol (500 μL) was added. The mixture was heated at reflux for 1 h, cooled to room temperature, and allowed to stand at 4 °C overnight. The product was filtered off, washed with isopropanol (3 mL), and dried in vacuo overnight to give a red-brown powder. Yield: 245 mg. Solubility in water/DMSO 99/1: ≥11 mg mL^–1.

[8] = Thermodynamic solubility, UV–vis of saturated solutions; details: water, 298 K
Description: The concentration of the compounds was determined by UV–vis spectrophotometry using stock solutions of the compounds with a known concentration dissolved in pure DMSO and 50% (v/v) DMSO/buffered aqueous solution for the calibration.

| Compound | selectivity factor (SF) Colo320 [5] | IC50 [5] | IC50 ([2]; 72 h) | selectivity factor (SF) Colo205 [6] | IC50 [6] | Solubility in water/DMSO 99/1 [7] | further results |
| --- | --- | --- | --- | --- | --- | --- | --- |
| C(=N\N=C1/NCc2ccccc2-c2c1[nH]c1ccccc21)/c1ccc(CN2CCOCC2)cn1 [HL^1] |  |  |  |  |  |  | pKa ([1]; 298 K, I = 0.10 M (KCl), read-out: pKa2): 4.53 ± 0.02; pKa ([1]; 298 K, I = 0.10 M (KCl), read-out: pKa3): 5.65 ± 0.02; IC50 ([2]; Homo sapiens, MRC5, 72 h): 3020 nM; log β [CuH(HL^1)]^3+ [3]: 12.38 ± 0.01; log β [CuH(L^1)]^2+ [3]: 8.57 ± 0.01 |
| CC(=NN=C1NCc2ccccc2-c2c1[nH]c1ccccc21)c1ccccn1 [HL^3nm] |  |  |  |  |  |  | log β (copper(II) complexes of HL^3nm) [4]: 6.39; log β [Cu(HL^3nm)]^2+ [4]: 10.96 |
| C(=NNC1=NCc2ccccc2-c2c1[nH]c1ccccc21)c1ccc(CN2CCOCC2)cn1.[Cl][Cu][Cl] [compound 1, CuCl2(HL^1)·H2O] | 0.83 | 2290 nM | 1900 nM | 1.33 | 1420 nM | ≥ 11 mg mL^–1 | pKa [CuH(HL^1)]^3+ ([1]; 298 K, I = 0.10 M (KCl)): 3.81; pKa [CuH(L^1)]^2+ ([1]; overlapping species (footnote a)): 5.71 |
| Brc1ccc2[nH]c3c(c2c1)-c1ccccc1CN=C3NN=Cc1ccc(CN2CCOCC2)cn1.[Cl][Cu][Cl] [compound 2, CuCl2(HL^2)·2H2O] | 1.73 | 3190 nM | 5520 nM | 2.01 | 2740 nM | ≥ 14 mg mL^–1 |  |
| CC(=NNC1=NCc2ccccc2-c2c1[nH]c1ccccc21)c1ccc(CN2CCOCC2)cn1.[Cl][Cu][Cl] [compound 3, CuCl2(HL^3)·0.2C3H7OH·0.3H2O] | 1.23 | 335 nM | 413 nM | 1.80 | 230 nM | ≥ 10 mg mL^–1 | Thermodynamic solubility (S) ([8]; pH 5, 20 mM MES buffer): 63.4 µM; Thermodynamic solubility (S) ([8]; pH 7.4, 20 mM HEPES): 6.0 µM |
